Measurements published in ChEMBL document CHEMBL1201862, “PubChem BioAssay data set” (2004).
Calls of active or inactive are those of the source.

Experiments:
[1] = biological target: T1, Corticotropin-releasing factor receptor 2/Corticotropin-releasing factor-binding protein (Homo sapiens, UniProt P24387+Q13324); assay: activators of CRF receptor 2 with binding protein – uHTS hits, confirmation (AID 602473); assay type: functional; details: read-out: EC50_Mean
T1 sequence (Q13324 whole entry): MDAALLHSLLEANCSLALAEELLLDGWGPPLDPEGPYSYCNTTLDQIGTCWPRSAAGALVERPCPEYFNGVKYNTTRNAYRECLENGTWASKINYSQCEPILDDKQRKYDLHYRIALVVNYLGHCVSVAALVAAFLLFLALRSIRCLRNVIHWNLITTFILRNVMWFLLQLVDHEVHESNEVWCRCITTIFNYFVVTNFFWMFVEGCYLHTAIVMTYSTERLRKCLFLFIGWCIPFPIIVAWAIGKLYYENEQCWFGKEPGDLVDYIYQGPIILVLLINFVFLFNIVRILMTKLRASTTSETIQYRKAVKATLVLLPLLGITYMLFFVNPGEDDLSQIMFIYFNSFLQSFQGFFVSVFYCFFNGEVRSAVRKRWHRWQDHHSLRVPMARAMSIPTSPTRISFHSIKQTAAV
T1 sequence (P24387 whole entry): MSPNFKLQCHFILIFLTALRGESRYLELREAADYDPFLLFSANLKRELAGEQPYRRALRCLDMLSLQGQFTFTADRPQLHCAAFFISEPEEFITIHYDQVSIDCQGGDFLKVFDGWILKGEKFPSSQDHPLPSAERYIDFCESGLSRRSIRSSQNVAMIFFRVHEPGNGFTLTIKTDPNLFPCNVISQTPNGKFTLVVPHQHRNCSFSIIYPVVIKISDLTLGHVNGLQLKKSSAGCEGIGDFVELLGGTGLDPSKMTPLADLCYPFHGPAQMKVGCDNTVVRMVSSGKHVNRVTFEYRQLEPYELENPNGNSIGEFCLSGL

[2] = biological target: T1, Corticotropin-releasing factor receptor 2/Corticotropin-releasing factor-binding protein; assay: Dose Response confirmation of uHTS hits for small molecule antagonists of the CRF-binding protein and CRF-R2 receptor complex.; assay type: functional; details: read-out: IC50_Mean
[3] = tested on: Streptococcus; assay: Group A Streptococcus viability loss, dose response, counter-screen for streptokinase expression inhibitor project, luminescence, BacTiterGlo (AID 1915); assay type: functional, organism-based;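 also: potency for reduction of bacterial viability or growth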
[4] = biological target: T2, Streptokinase A (Streptococcus pyogenes serotype M1, UniProt P10520); assay: S. pyogenes streptokinase expression inhibitors, potency, dose response, plasminogen activation absorbance, OD405 (AID 1914); assay type: functional, Streptococcus pyogenes M1 GAS;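 also: secreted streptokinase activity via plasminogen activation per viability signal from cell pellet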
T2 sequence (P10520 whole entry): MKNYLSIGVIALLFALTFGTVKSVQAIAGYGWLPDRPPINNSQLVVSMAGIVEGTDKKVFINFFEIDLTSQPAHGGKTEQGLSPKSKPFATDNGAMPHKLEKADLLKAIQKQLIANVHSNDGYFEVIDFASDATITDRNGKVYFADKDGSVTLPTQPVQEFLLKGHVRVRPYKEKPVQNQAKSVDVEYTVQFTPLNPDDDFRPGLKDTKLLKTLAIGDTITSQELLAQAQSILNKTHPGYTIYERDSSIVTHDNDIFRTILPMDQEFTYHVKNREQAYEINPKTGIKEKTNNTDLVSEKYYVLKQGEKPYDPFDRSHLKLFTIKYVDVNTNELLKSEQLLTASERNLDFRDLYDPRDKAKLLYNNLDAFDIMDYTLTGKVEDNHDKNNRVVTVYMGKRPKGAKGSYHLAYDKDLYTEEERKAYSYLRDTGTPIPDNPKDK

[5] = tested on: Streptococcus sp. 'group A'; assay: growth inhibition of control SK(-) GAS strain, dose response, counter-screen for streptokinase expression inhibitor project, luminescence, kanamycin, BacTiterGlo, confirmation (AID 1900); assay type: functional, organism-based
[6] = tested on: INS1; assay: beta cell apoptosis inhibitors, cytokine rescue, dose response, luminescence, retest (AID 449756); assay type: functional, cell-based; details: Rattus norvegicus, INS1;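 also: cell death triggered by IL-1 beta plus TNF-alpha plus IFN-gamma mixture; protective hits raise ATP signal compared with cytokine alone wells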
[7] = biological target: Cytochrome P450 2D6 (Homo sapiens, UniProt P10635);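 also: CYP2D6 member of a cytochrome P450 panel assay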
[8] = biological target: Cytochrome P450 3A4 (Homo sapiens, UniProt P08684);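 also: CYP3A4 tested as one member of a cytochrome P450 panel screen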
[9] = biological target: T3, Cytochrome P450 1A2 (Homo sapiens, UniProt P05177);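 also: PubChem cytochrome P450 panel assay, CYP1A2 panel member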
T3 sequence (P05177 whole entry): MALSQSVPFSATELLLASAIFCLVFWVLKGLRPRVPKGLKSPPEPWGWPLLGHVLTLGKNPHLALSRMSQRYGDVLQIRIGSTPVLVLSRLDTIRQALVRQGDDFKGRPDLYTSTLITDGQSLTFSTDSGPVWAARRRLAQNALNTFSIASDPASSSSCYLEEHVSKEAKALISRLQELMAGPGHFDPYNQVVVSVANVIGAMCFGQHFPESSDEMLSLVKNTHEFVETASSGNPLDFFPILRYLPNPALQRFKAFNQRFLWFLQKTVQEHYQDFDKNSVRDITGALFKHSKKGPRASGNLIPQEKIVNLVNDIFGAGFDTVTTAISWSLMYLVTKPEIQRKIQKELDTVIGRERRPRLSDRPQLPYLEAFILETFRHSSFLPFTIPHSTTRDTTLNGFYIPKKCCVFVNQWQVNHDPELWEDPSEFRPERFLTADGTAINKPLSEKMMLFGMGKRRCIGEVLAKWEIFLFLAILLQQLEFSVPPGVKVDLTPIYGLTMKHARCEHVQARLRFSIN

[10] = biological target: T4, Protein skinhead-1 (Caenorhabditis elegans, UniProt P34707); assay type: functional
T4 sequence (P34707 whole entry): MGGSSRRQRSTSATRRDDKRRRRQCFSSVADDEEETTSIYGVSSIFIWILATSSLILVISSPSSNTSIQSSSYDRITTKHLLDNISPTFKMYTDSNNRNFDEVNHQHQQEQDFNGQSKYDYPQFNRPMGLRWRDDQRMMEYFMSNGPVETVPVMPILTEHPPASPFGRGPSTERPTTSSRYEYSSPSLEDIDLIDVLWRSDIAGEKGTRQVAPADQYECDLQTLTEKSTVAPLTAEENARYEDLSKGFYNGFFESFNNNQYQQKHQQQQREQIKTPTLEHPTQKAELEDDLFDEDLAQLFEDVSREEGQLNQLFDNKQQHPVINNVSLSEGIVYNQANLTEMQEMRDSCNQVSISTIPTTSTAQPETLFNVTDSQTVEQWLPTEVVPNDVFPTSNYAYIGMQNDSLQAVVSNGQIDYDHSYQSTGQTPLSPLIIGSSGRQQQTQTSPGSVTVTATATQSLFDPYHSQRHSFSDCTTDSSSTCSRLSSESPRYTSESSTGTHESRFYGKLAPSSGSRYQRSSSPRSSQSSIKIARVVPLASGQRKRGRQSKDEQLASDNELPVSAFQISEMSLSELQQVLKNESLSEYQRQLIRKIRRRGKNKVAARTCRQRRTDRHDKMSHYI

Sequence of Cytochrome P450 2D6 (P10635 whole entry): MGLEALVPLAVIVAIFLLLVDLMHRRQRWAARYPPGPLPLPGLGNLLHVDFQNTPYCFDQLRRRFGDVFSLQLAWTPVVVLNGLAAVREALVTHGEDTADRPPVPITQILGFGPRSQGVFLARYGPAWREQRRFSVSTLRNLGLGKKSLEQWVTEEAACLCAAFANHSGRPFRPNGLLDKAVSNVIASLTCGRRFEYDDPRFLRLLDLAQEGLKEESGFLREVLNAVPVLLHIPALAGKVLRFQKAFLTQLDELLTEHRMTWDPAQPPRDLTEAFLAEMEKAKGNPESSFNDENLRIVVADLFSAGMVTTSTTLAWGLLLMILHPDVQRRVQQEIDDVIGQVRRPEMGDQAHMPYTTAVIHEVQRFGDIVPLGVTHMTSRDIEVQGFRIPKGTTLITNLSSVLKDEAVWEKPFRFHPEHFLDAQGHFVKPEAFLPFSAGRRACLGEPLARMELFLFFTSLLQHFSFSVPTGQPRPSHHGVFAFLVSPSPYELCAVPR
Sequence of Cytochrome P450 3A4 (P08684 whole entry): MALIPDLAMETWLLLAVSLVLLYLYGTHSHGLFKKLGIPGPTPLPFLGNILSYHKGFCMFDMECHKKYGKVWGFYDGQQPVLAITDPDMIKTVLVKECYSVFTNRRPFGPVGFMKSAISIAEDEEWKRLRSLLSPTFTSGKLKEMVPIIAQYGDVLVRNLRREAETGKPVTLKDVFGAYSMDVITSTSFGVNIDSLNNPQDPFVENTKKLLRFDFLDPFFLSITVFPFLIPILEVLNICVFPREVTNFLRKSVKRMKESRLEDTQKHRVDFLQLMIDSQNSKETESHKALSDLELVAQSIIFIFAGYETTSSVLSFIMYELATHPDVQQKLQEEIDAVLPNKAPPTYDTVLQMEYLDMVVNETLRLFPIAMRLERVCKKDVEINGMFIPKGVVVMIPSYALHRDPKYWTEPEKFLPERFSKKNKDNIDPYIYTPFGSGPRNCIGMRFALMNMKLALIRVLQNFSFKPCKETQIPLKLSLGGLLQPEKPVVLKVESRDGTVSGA

O=C(c1ccc(NS(=O)(=O)c2cccc([N+](=O)[O-])c2)cc1)N1CCCCCC1
EC50 [1]: > 53 µM (inactive)
IC50 [2]: > 47.1 µM (inactive)

Cc1ccc(C23CC4CC(CC(C(=O)N5CCN(C)CC5)(C4)C2)C3)cc1
EC50 [3]: > 150 µM (not active)
EC50 [4]: > 150 µM (not active)
EC50 [5]: > 150 µM (not active)

CCC(C)Sc1ccc(-c2nc3ccc(C)cn3c2NCc2ccccc2)cc1OC (stereo unspecified)
AC50 [6]: 6.7 µM (active)

O=C(c1csnn1)N1CCC[C@@]2(CCN(c3ccccn3)C2)C1
AC50 [7]: 12.6 µM (inconclusive)
AC50 [8]: 6.31 µM (inconclusive)

Cc1cc(C)c(S(=O)(=O)n2ccc3ccccc32)c(C)c1
EC50 [1]: > 53 µM (inactive)
IC50 [2]: > 47.1 µM (inactive)

COC(C(=O)Nc1ccc(F)cc1)c1ccccc1 (stereo unspecified)
EC50 [1]: > 53 µM (inactive)
IC50 [2]: > 47.1 µM (inactive)

Cc1c(C)c2c(c(C)c1O)CC[C@@](C)(C(=O)O)O2
AC50 [8]: 12.6 µM (inconclusive)
AC50 [9]: 20 µM (inconclusive)

CCOc1nc(C)ccc1-c1noc(-c2ccccn2)n1
EC50 [1]: > 53 µM (inactive)
IC50 [2]: > 47.1 µM (inactive)

Clc1ccccc1-c1nnc(-c2ccccc2Cl)o1
IC50 [10]: 53.8 µM (inactive)

Clc1ccc2nc(N3CCCCC3)sc2c1
IC50 [10]: 29.2 µM (active)

O=C1CSC(c2ccccc2F)N1 (stereo unspecified)
AC50 [6]: > 260 µM (inactive)

Clc1cccc(CSc2ncn(-c3ccccc3)n2)c1
IC50 [10]: 24.7 µM (active)

CCOc1ccc(-n2c(=O)[nH]cc(C(=O)Nc3ccc(OC)c(OC)c3)c2=O)cc1
AC50 [6]: > 260 µM (inactive)

COc1ccc2nc(Nc3nc4cc5c(cc4s3)OCO5)sc2c1
EC50 [3]: > 150 µM (not active)
EC50 [4]: > 150 µM (not active)
EC50 [5]: 1.17 µM (active)

O=C(COC(=O)C12CC3CC(CC(O)(C3)C1)C2)Nc1cccc(Br)c1
IC50 [10]: > 100 µM (inactive)

COc1ccc(N2C(=O)NC(NC(=O)c3ccncc3)(C(F)(F)F)C2=O)cc1 (stereo unspecified)
AC50 [8]: 22.4 µM (inconclusive)

CN(C)S(=O)(=O)c1cccc(NC(=O)COC(=O)c2ccc(Br)o2)c1
AC50 [8]: 20 µM (inconclusive)

O=C(Nc1ccc(N2CCCCC2)cc1)c1ccc2ccccc2n1
IC50 [10]: > 100 µM (inactive)

O=C(Nc1c(C(=O)N2CCCCC2)cnn1-c1ccccc1)c1ccco1
AC50 [8]: 17.8 µM (inconclusive)

Cc1ccccc1NC(=O)Cc1nc(COC(=O)c2cccc(O)c2)cs1
IC50 [10]: > 100 µM (inactive)

Cc1nc2cnc(N(C)C)nc2n(Cc2cccs2)c1=O
AC50 [7]: 12.6 µM (inconclusive)
AC50 [8]: 3.16 µM (inconclusive)

c1ccc(-c2csc(N3CCN(c4ccccn4)CC3)n2)cc1
IC50 [10]: 26.5 µM (active)

O=C(N/N=C/c1c[nH]c2ccccc12)c1ccn(Cc2ccc(Cl)cc2Cl)n1
AC50 [7]: 7.08 µM (inconclusive)
AC50 [8]: 3.55 µM (inconclusive)

COc1ccc(OC)c(-n2c(C)cc(/C=C3\C(=N)N4N=C(CC(=O)N5CCOCC5)SC4=NC3=O)c2C)c1
EC50 [3]: 87.9 µM (active)
EC50 [4]: > 150 µM (not active)
EC50 [5]: 36.3 µM (active)

O=C(Nc1ccccc1)N1CC[C@@]2(CCCN(C(=O)Oc3ccccc3)C2)C1
AC50 [8]: 25.1 µM (inconclusive)
AC50 [9]: 15.8 µM (inconclusive)

O=C(Nc1ccc(OC(F)F)c(Cl)c1)c1cccc(OC(F)F)c1
IC50 [10]: 48.3 µM (active)

CN1CCN(c2ncc3ncc(=O)n(Cc4cccs4)c3n2)CC1
AC50 [8]: 25.1 µM (inconclusive)

CC1CCN(C(=O)c2ccc(COc3ccccc3Cl)o2)CC1
AC50 [7]: 28.2 µM (inconclusive)
AC50 [8]: 31.6 µM (inconclusive)

O=C(NC(=S)N1CCN(c2nc(-c3ccccc3)cs2)CC1)c1cccnc1
EC50 [3]: > 150 µM (not active)
EC50 [4]: > 150 µM (not active)
EC50 [5]: 5.55 µM (active)

OCc1cccc(-c2csc(C(O)(c3ccccc3)C(F)(F)F)n2)c1 (stereo unspecified)
IC50 [10]: > 100 µM (inactive)

COc1ccccc1NC(=O)Cn1cc(C(=O)c2ccco2)c2ccccc21
AC50 [6]: 9.44 µM (active)

O=C(Nc1ccc2c(c1)Cc1ccccc1-2)c1ccco1
IC50 [10]: > 100 µM (inactive)

CCCOc1ccc(/C=C/c2c([N+](=O)[O-])c(=O)n(C)c(=O)n2C)cc1
EC50 [3]: > 150 µM (not active)
EC50 [4]: > 150 µM (not active)
EC50 [5]: 26.9 µM (active)

CCOC(=O)c1ccc(Nc2nnc(C(C)(C)C)c(O)n2)cc1
IC50 [10]: > 100 µM (inactive)

FC(F)(F)c1cc(Nc2ccccc2)nc(-c2ccccn2)n1
EC50 [3]: 88.6 µM (active)
EC50 [4]: > 150 µM (not active)
EC50 [5]: 9.52 µM (active)

COc1ccc(CN(C)S(=O)(=O)c2nnc(NC(=O)c3ccccc3Br)s2)cc1
EC50 [3]: 98.9 µM (active)
EC50 [4]: 9.36 µM (active)
EC50 [5]: 6.23 µM (active)

COCCNC(=O)CC(c1ccccc1)c1ccccc1
IC50 [10]: > 100 µM (inactive)

CC(C)=CCc1c(-c2ccc(O)cc2O)oc2c3c(cc(O)c2c1=O)OC(C)(C)C=C3 [MORUSIN]
EC50 [3]: 2.96 µM (active)
EC50 [4]: 1.15 µM (active)
EC50 [5]: 2.71 µM (active)

COc1ccc(C2CC(=O)c3cnc(N4CCN(Cc5ccccc5)CC4)nc3C2)cc1 (stereo unspecified)
EC50 [3]: 21.6 µM (active)
EC50 [4]: > 150 µM (not active)
EC50 [5]: 14.9 µM (active)

Cc1cc(C)n(C(=O)/C(C#N)=N/Nc2cc(Cl)cc(Cl)c2)n1
EC50 [3]: 12.3 µM (active)
EC50 [4]: > 150 µM (not active)
EC50 [5]: 2.34 µM (active)

CN1CCN(c2ncc3nc(-c4cc(F)cc(F)c4)c(=O)n(Cc4cccs4)c3n2)CC1
AC50 [8]: 25.1 µM (inconclusive)
AC50 [9]: 6.31 µM (inconclusive)

CCCC[C@@H]1C[C@H]1C(NC(=O)c1ccccc1)c1ccccc1C(F)(F)F (stereo partly specified)
AC50 [8]: 3.16 µM (inconclusive)
AC50 [9]: 10 µM (inconclusive)

COC(=O)c1sc2ccccc2c1-n1cccc1C(=O)C(=O)Nc1ccc(Cl)cc1
AC50 [8]: 14.1 µM (inconclusive)
AC50 [9]: 2.82 µM (inconclusive)
